Reference: EP4790066A1, “GLP-1R/GIPR/GCGR TRIPLE AGONIST ANALOGUE AND USE THEREOF” (Shenzhen Bay Laboratory, priority 2023, dated 2025)
*1 amine or outer side, *2 acyl side, *3 side chain or, on linkers, in order; H or OH if unused. Where a SMILES comes first, the peptide text is derived from it. Bridges are numbered along the chain shown (N, C = ends). [ ]: non-standard residue; d: D form. X1 = O=C(O)CCCCCCCCCCCCCCCCCCC(=O)N[C@@H](CCCCNC(=O)COCCOCCNC(=O)COCCOCCNC(=O)CCC(=O)N(CCNC(=O)C[*:1])CCNC(=O)C[*:2])C(=O)O; αMeL = CC(C)C[C@](C)(N)C(=O)O; Aib = CC(C)(N)C(=O)O

Experiments:
Type in all cases: cell-based
[1] = target: T1, GCGR (Homo sapiens, UniProt P47871); assay: CreLuc method (CRE-luciferase reporter), 293HEK/pGM-CREB-L-Luc/GCGR pool; settings: 6 h incubation, read-out: EC50 (pM) for each receptor GCGR
T1 construct: expressed in transfected cells
T1 sequence (P47871 26-477, species assumed): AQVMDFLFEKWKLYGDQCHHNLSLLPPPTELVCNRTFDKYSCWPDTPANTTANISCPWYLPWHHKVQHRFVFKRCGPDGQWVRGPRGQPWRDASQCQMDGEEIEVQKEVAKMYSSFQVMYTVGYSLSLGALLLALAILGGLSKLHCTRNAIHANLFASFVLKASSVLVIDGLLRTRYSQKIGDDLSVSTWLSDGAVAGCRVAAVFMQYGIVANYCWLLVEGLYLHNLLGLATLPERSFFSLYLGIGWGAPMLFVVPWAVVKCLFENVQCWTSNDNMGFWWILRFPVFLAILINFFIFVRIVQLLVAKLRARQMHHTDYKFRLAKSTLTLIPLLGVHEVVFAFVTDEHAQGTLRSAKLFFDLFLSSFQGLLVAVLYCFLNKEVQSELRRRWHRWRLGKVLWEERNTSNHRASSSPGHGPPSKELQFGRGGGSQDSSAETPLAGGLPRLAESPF
Protocol: (§1) 1. Insulinotropic analogues can bind to the target receptor on the cell membrane, activate the cAMP response element (CRE), and initiate the expression of downstream luciferase. The expression level is positively correlated with the biological activity of the analogue being tested. After activation, luciferase substrate is added for chemiluminescence detection, and the luminescence intensity is determined to characterize the biological activity of the test compounds. Therefore, the target peptide derivatives (or polypeptide derivatives, i.e., TG1-TG94) prepared in Example 1 and Example 2 can be tested by the CreLuc method. The specific steps are as follows: The stably transfected cell lines HEK293/pGM-CREB-L-Luc/GLP-1R pool, HEK293/pGM-CREB-L-Luc/GIPR pool, and 293HEK/pGM-CREB-L-Luc/GCGR pool were constructed. […] The corresponding test cells were digested (1 min), dispersed by pipetting, and centrifuged (1000 rpm, 5 min). The culture medium was discarded, and the cells were resuspended in freestyle medium, centrifuged again, collected, and counted. The cells were then diluted to a cell density of 5 x 10^5 cells/mL and then added to the detection wells of a 384-well plate (40 µL/20,000 cells/well). Echo was used to add the corresponding analyte dilution series. The cell plate was incubated at 37°C and 5% CO2 for 6 h, then ONE-GLO (20 µL/well) was added for detection. It was kept in the dark for 3 min, then a chemiluminescent microplate reader was used for determination. The plate was read within 30 min, and the determination results were recorded. […] Table 3: EC50 values for target peptide derivatives

[2] = target: T2, GLP-1R (Homo sapiens, UniProt P43220); assay: CreLuc method (CRE-luciferase reporter), HEK293/pGM-CREB-L-Luc/GLP-1R pool; settings: 6 h incubation, read-out: EC50 (pM) for each receptor GLP-1R
T2 construct: expressed in transfected cells
T2 sequence (P43220 24-463, species assumed): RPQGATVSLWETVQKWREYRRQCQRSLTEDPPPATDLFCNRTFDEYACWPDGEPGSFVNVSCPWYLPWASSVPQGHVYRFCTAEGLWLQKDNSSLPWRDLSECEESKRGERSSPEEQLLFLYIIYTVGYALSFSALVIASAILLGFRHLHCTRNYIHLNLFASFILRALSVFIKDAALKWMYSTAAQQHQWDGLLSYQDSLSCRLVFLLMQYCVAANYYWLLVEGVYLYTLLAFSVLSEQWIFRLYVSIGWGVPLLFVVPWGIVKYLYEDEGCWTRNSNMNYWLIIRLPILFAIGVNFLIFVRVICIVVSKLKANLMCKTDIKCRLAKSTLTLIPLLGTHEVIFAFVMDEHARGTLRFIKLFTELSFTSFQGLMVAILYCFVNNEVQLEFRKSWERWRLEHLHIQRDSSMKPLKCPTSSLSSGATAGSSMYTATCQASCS
Protocol: as §1

[3] = target: T3, GIPR (Homo sapiens, UniProt P48546); assay: CreLuc method (CRE-luciferase reporter), HEK293/pGM-CREB-L-Luc/GIPR pool; settings: 6 h incubation, read-out: EC50 (pM) for each receptor GIPR
T3 construct: expressed in transfected cells
T3 sequence (P48546 22-466): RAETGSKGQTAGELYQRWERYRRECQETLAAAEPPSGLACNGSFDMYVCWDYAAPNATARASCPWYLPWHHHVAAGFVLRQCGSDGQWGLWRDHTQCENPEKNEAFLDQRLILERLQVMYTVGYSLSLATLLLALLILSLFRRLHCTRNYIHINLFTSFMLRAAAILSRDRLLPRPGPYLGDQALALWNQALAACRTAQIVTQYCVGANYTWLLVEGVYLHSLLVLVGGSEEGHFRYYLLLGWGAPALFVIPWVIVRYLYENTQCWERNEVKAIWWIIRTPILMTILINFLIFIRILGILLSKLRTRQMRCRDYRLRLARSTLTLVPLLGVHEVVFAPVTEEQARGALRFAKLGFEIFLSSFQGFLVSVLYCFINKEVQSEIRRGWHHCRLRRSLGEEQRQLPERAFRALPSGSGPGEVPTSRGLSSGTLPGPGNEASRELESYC
Protocol: as §1

Row | SMILES | EC50 [1] [pM] | EC50 [2] [pM] | EC50 [3] [pM]
1 | CC[C@H](C)[C@@H]1NC(=O)[C@H](Cc2ccccc2)NC(=O)[C@@H](NC(=O)[C@@H](C)NC(=O)[C@H](CCC(N)=O)NC(=O)[C@H](C)NC(=O)[C@H](CCCCNC(C)=O)NC(=O)[C@H](CCCCN)NC(=O)[C@H](CC(=O)O)NC(=O)[C@H](CC(C)C)NC(=O)[C@](C)(CC(C)C)NC(=O)[C@@H](NC(=O)[C@H](CO)NC(=O)[C@H](Cc2ccc(O)cc2)NC(=O)[C@H](CC(=O)O)NC(=O)[C@H](CO)NC(=O)[C@@H](NC(=O)[C@H](Cc2ccccc2)NC(=O)[C@@H](NC(=O)CNC(=O)[C@H](CCC(N)=O)NC(=O)C(C)(C)NC(=O)[C@@H](N)Cc2ccc(O)cc2)[C@@H](C)O)[C@@H](C)O)[C@@H](C)CC)CSCC(=O)NCCN(C(=O)CCC(=O)NCCOCCOCC(=O)NCCOCCOCC(=O)NCCCC[C@H](NC(=O)CCCCCCCCCCCCCCCCCCC(=O)O)C(=O)O)CCNC(=O)CSC[C@@H](C(=O)NCC(=O)NCC(=O)N2CCC[C@H]2C(=O)N[C@@H](CO)C(=O)N[C@@H](CO)C(=O)NCC(=O)N[C@@H](C)C(=O)N2CCC[C@H]2C(=O)N2CCC[C@H]2C(=O)N2CCC[C@H]2C(=O)N[C@@H](CO)C(N)=O)NC(=O)[C@H](CC(C)C)NC(=O)[C@H](CC(C)C)NC(=O)[C@H](Cc2ccc(O)cc2)NC(=O)[C@H](CCC(=O)O)NC1=O [TG31] (H-Y[Aib]QGTFTSDYSI[αMeL]LDKK(Ac)AQ[dA]CFIEYLLCGGPSSGAPPPS-NH2; linker 21-28 via X1) | 440 | 32.7 | 11.4
2 | CC[C@H](C)[C@@H]1NC(=O)[C@H](Cc2ccccc2)NC(=O)[C@@H](NC(=O)[C@H](Cc2c[nH]cn2)NC(=O)[C@H](CCC(N)=O)NC(=O)[C@H](C)NC(=O)[C@H](CCCCNC(C)=O)NC(=O)[C@H](CCCCN)NC(=O)[C@H](CC(=O)O)NC(=O)[C@H](CC(C)C)NC(=O)[C@](C)(CC(C)C)NC(=O)[C@@H](NC(=O)[C@H](CO)NC(=O)[C@H](Cc2ccc(O)cc2)NC(=O)[C@H](CC(=O)O)NC(=O)[C@H](CO)NC(=O)[C@@H](NC(=O)[C@H](Cc2ccccc2)NC(=O)[C@@H](NC(=O)CNC(=O)[C@H](CCC(N)=O)NC(=O)C(C)(C)NC(=O)[C@@H](N)Cc2ccc(O)cc2)[C@@H](C)O)[C@@H](C)O)[C@@H](C)CC)CSCC(=O)NCCN(C(=O)CCC(=O)NCCOCCOCC(=O)NCCOCCOCC(=O)NCCCC[C@H](NC(=O)CCCCCCCCCCCCCCCCCCC(=O)O)C(=O)O)CCNC(=O)CSC[C@@H](C(=O)NCC(=O)NCC(=O)N2CCC[C@H]2C(=O)N[C@@H](CO)C(=O)N[C@@H](CO)C(=O)NCC(=O)N[C@@H](C)C(=O)N2CCC[C@H]2C(=O)N2CCC[C@H]2C(=O)N2CCC[C@H]2C(=O)N[C@@H](CO)C(N)=O)NC(=O)[C@H](CC(C)C)NC(=O)[C@H](CC(C)C)NC(=O)[C@H](Cc2ccc(O)cc2)NC(=O)[C@H](CCC(=O)O)NC1=O [TG32] (H-Y[Aib]QGTFTSDYSI[αMeL]LDKK(Ac)AQHCFIEYLLCGGPSSGAPPPS-NH2; linker 21-28 via X1) | 197 | 34 | 11.7
